The values that follow come from patent US20240191187A1, “MEDIA AND METHODS FOR GROWING MAMMARY ORGANOIDS” (STEMCELL TECHNOLOGIES CANADA INC., priority 2021, published 2024).

Entries after “also recorded” stand apart in the source; their conditions may differ.

In assay [1] the test system is human mammary epithelial cells. Kind of assay: Human mammary organoid formation, brightfield microscopy. It is filed as cell-based. To be noted: media comprising NOGGIN or LDN193189 alone vs both; successive passages. The procedure: Fragments of human mammary epithelial cells were isolated from tissue samples obtained from academic collaborators, as follows. Resected tissue samples were minced in a petri dish using a scalpel to cut in a cross-hatched pattern. The minced tissue samples were placed in a dissociation flask in standard culture medium supplemented with BSA, insulin, collagenase and hyaluronidase. The flask was gently shaken overnight on an orbital shaker placed in a 37° C. tissue incubator. The following morning the floating layer of fat was removed by pipette, and the remaining liquid was transferred to a tube and briefly centrifuged at low rpm (˜80 g for 30 seconds). The pellet (A pellet) was set aside and the supernatant was further centrifuged for an incrementally longer period of time and at an incrementally higher rpm (˜200 g for 4 minutes). The pellet (B pellet) was set aside and the supernatant was further centrifuged for a still incrementally longer period of time and at an incrementally higher rpm (˜450 g for 5 minutes).
Cryopreserved pellet A and pellet B were dissociated into a single cell suspension by treatment with 0.25% Trypsin-EDTA for 5 minutes at 37° C. (with intermittent trituration) and then centrifuged at (300 g for 5 minutes). The supernatant was discarded and the pellet was resuspended in a 100 μg/ml DNase solution for 1 minute at room temperature. […]

Assay [2] deals with human mammary epithelial cells. Kind of assay: Human mammary organoid cell lineage balance by flow cytometry. To be noted: for cell lineage balance, inhibitors of TGFβ signaling: ~10 μM SB431542, ~200-500 nM A77-01, ~5-25 RepSox; for cell lineage balance, ERBB receptor family ligands: ~10-50 ng/mL AREG, ~10-50 ng/mL EGF, ~50-100 ng/mL NRG1; for cell lineage balance across multiple experiments, ERBB ligands: normalized to control lacking ERBB modulators, mean of 2 experiments.
Procedure: (§4) Cryopreserved pellet A and pellet B were dissociated into a single cell suspension by treatment with 0.25% Trypsin-EDTA for 5 minutes at 37° C. (with intermittent trituration) and then centrifuged at (300 g for 5 minutes). The supernatant was discarded and the pellet was resuspended in a 100 μg/ml DNase solution for 1 minute at room temperature. The resulting cells were passed through a 37 μm strainer to obtain the single cell suspension.
Each well received between 0.5-1 mL of any one of the various culture media described herein.
The plated single cell suspension of mammary epithelial cells formed into organoids that were passaged approximately every 7-days, with 2-3 full medium changes during such 7-day period. To passage the organoids, the Matrigel domes were broken apart by pipetting in pre-warmed 0.25% Trypsin-EDTA, incubating at 37° C. for ˜ 5-15 minutes and pipetting again. The trypsinization reaction was inactivated by washing in an equal volume of Hanks Balanced Salt Solution supplemented with 2% FBS. Depending on the density and size of organoids a 1:2-1:5 split was performed, with the cells seeded as domes, as described above. Alternatively, cells would be strained through a 37 μm strainer to obtain the single cell suspension and seeded in Matrigel domes as described above.
Organoids were formed in media comprising either BMP signaling activator, ˜50 ng/mL BMP2 or ˜50 ng/mL BMP4, and in media comprising either BMP signaling inhibitor, ˜25-200 ng/mL NOGGIN or ˜10-100 nM LDN193189. Just prior to the first passage, the formed organoids were dissociated and the cell lineage balance was analyzed by flow cytometry.
Organoids were formed in media comprising either no ligand of an ERBB receptor family member, or comprising ˜10-50 ng/mL amphiregulin (AREG), ˜10-50 ng/mL epidermal growth factor (EGF), or ˜50-100 ng/mL heregulin/neuregulin 1 (NRG1). Just prior to the first passage, the formed organoids were dissociated and the cell lineage balance was analyzed by flow cytometry.
Just prior to the first passage, the formed organoids were dissociated and the cell lineage balance was analyzed by flow cytometry.

Assay [3] deals with human mammary epithelial cells. The experiment in a line: Human mammary organoids stained for K8/K14, confocal microscopy. It is filed as cell-based. To be noted: Day 17 organoids; 50 ng/mL NRG3, 100 ng/mL AMH, 50 ng/mL GM-CSF. The procedure:
(§1) Organoids were recovered from Matrigel by incubating in Corning Cell Recovery Solution for 1 hour with rocking on ice. Organoids were then fixed in 4% paraformaldehyde (PFA) at room temperature for 1 hour and stored in PBS at 4° C. After PFA fixation, antigen retrieval was performed by boiling the organoids in sodium citrate buffer for 20 minutes at 96° C. Organoids were permeabilized in a 0.5% Triton-X-100 solution in PBS overnight at room temperature. Samples were blocked by incubating overnight in a solution of 5% goat serum.
Following fixation and permeabilization, the organoids were incubated sequentially in primary antibody and secondary antibody solutions (as summarized in the table below) overnight at room temperature. Samples were counterstained in a 2 μg/ml DAPI solution for 20 minutes and dehydrated through stepwise incubations in solutions with increasing methanol concentrations (50%, 80%, then 100% methanol). Organoids were embedded in a solution of 2:1 Benzyl Benzoate-Benzyl alcohol (BABB), transferred to Ibidi glass bottom chamber slides and imaged using a Leica SP8 confocal laser scanning microscope. […]
The effects of modulating signaling through BMP were analyzed across multiple experiments in terms of total cell count among formed organoids (FIG. 9A) and the lineage balance of the cells among formed organoids (FIG. 9B). […]

Assay [4] concerns estrogen receptor localization in human mammary organoids. Kind of assay: ER localization in human mammary organoids after transient TGFβ signaling inhibitor exposure (confocal). It is filed as cell-based. To be noted: transient exposure after organoids have formed. As for the experimental part:
(§2) In panel A) (human) and in panel B) (mouse) organoids were formed in respective organoid media of this disclosure, and were then transiently exposed to different inhibitors of TGFβ signaling. Organoids were imaged by confocal microscopy after staining for K8, K14, ER and the nuclear stain DAPI.
as §1
(§3) Following fixation and permeabilization, the organoids were incubated sequentially in primary antibody and secondary antibody solutions (as summarized in the table below) overnight at room temperature. Samples were counterstained in a 2 μg/ml DAPI solution for 20 minutes and dehydrated through stepwise incubations in solutions with increasing methanol concentrations (50%, 80%, then 100% methanol). […]

The subject of assay [5] is estrogen receptor localization in mouse mammary organoids. The experiment in a line: ER localization in mouse mammary organoids after transient TGFβ signaling inhibitor exposure (confocal). It is filed as cell-based. To be noted: transient exposure after organoids have formed. The procedure:
as §2, §1, §3

Assay [6] concerns human mammary epithelial cells. Kind of assay: Total cell count among formed human mammary organoids. It is filed as cell-based. As to conditions: vs control with no modulation of ERBB signaling.
Procedure: as §4
Each well received between 0.5-1 mL of any one of the various culture media described herein. […]
The effects of modulating signaling through an ERBB receptor family member were analyzed across multiple experiments in terms of total cell count among formed organoids (FIG. 13A) and the lineage balance of the cells among formed organoids (FIG. 13B).

Consider `c1ccc2c(-c3cnn4cc(-c5ccc(N6CCNCC6)cc5)cnc34)ccnc2c1` [LDN193189, reference compound], for which, in assay [1], the “formation of luminal organoids, single vs dual BMP signaling inhibitor” value is “appeared sufficient to bias formation of luminal organoids”. Besides, the “cell lineage balance, BMP signaling modulators” value in assay [2] (just prior to first passage, ~50 ng/mL BMP2 or BMP4, ~25-200 ng/mL NOGGIN or ~10-100 nM LDN193189) is reported as “decreased the number of basal cells while increasing the number of luminal cells”.
In the case of “Granulocyte-macrophage Colony Stimulating Factor [GM-CSF]”, the “lineage restriction of organoids formed (K8/K14 staining)” value in assay [3] is on record as “bias the culture of mammary epithelial cells to form basal-restricted organoids; also recorded: Basal-restricted organoids were formed”.
For the compound `Cc1cccc(-c2[nH]ncc2-c2ccc3ncccc3n2)n1` [RepSox], the “cell lineage balance, inhibitors of TGFβ signaling” value (from here on “cell lineage balance, inhibitors”) in assay [2] was “reduce the proportion of stromal cells while either maintaining or improving the proportions of luminal cells”. For the same compound, the “localization of estrogen receptor, human organoids” value in assay [4] is recorded as “promoted the localization of estrogen receptor within nuclei”. For the same compound, the “localization of estrogen receptor, mouse organoids” value in assay [5] is reported as “promoted the localization of estrogen receptor within nuclei”.
For the compound `Cc1cccc(-c2[nH]ncc2-c2ccnc3ccccc23)n1` [A77-01, reference compound], the “cell lineage balance, inhibitors” value in assay [2] is “reduce the proportion of stromal cells while either maintaining or improving the proportions of luminal cells”.
`NC(=O)c1ccc(-c2nc(-c3ccc4c(c3)OCO4)c(-c3ccccn3)[nH]2)cc1` [SB431542]: the “cell lineage balance, inhibitors” value in assay [2] was “reduce the proportion of stromal cells while either maintaining or improving the proportions of luminal cells”. In assay [4], the “localization of estrogen receptor, human organoids” value is recorded as “promoted the localization of estrogen receptor within nuclei”. Further, the “localization of estrogen receptor, mouse organoids” value in assay [5] was “promoted the localization of estrogen receptor within nuclei”.
heregulin/neuregulin 1 [NRG1]: the “cell lineage balance, ERBB receptor family ligands” value in assay [2] (just prior to first passage) is “a minor or no effect on cell lineage balance”. For the same compound, the “cell lineage balance across multiple experiments, ERBB ligands” value in assay [2] was “a higher percentage of luminal cells and a reduction in the percentage of basal cells”.
On to “epidermal growth factor [EGF, ligand of ERBB1]”, for which the “cell lineage balance, ERBB receptor family ligands” value in assay [2] (just prior to first passage) is reported as “significantly reduce the number of luminal cells while significantly increasing the number of basal cells”. Besides, in assay [2], the “cell lineage balance across multiple experiments, ERBB ligands” value was “the greatest reduction in luminal cells and the greatest increase in basal cells”. Moreover, in assay [6], the “total cell count among formed organoids, ERBB modulators” value was “highest mitogenic activity”.
TGFβ1: ligand of a TGFβ receptor: the “cell lineage balance, TGFβ receptor ligands” value in assay [2] (~50 ng/mL, just prior to first passage) was “an overall negative impact on the percentage of luminal and basal cells, while greatly increasing the proportion of stromal cells”.
In the case of `C#Cc1cccc(Nc2ncnc3cc(OCCOC)c(OCCOC)cc23)c1` [Erlotinib, reference compound], the “cell lineage balance, EGF receptor inhibition” value in assay [2] (~100 nM Gefitinib and ~100 nM Erlotinib given together, two donor samples) was “negligible or no effect on cell lineage balance”.
Neuregulin 3 [NRG3]: the “lineage restriction of organoids formed (K8/K14 staining)” value in assay [3] was “bias the culture of mammary epithelial cells to form luminal-restricted organoids; also recorded: Luminal-restricted organoids were formed”.
